Key:
Format in all cases: biochemical
[1] = molecular target: calf intestinal alkaline phosphatase (CIAP) (Bos taurus, UniProt P19111); assay: Alkaline phosphatase inhibition assay; settings: p-NPP substrate, Mean ± SEM
Procedure: Spectrophotometric analysis, as previously described in publications, can be used to evaluate the activity of calf intestinal alkaline phosphatase (CIAP). The reaction mixture, including 10 µl of the reagent and 50 mM Tris-HCl buffer (5 mM MgCl2, 0.1 mM ZnCl2, pH 9.5), is preincubated for 10 min following the addition of 5 µl of CIAP (0.025 U/ml). The test mixture was then incubated at 37°C for another half hour after 10 µl of a substrate (0.5 mM p-NPP, para nitrophenyl phosphate disodium salt) was added to initiate the reaction. The alteration in absorbance of released p-nitrophenolate was measured using a 96-well microplate reader (Thermo Scientific Multiskan GO, U.S.A.) at 405 nm. All tests were repeated three times. […] The inhibition activity was calculated according to the following equation:
Inhibition(%)=(Blank−Sample)/Blank×100
IC50 values were designed using 6–8 serial dilutions, and the data were analyzed by nonlinear regression using GraphPad Prism 5 (GraphPad, San Diego, CA, U.S.A.).

carbonic anhydrase = carbonic anhydrase (Bos taurus, UniProt P00921); assay: Carbonic anhydrase inhibition assay (p-nitrophenyl acetate hydrolysis); settings: bovine enzyme, p-nitrophenyl acetate substrate, Mean ± SEM
Sequence of carbonic anhydrase (P00921 whole entry): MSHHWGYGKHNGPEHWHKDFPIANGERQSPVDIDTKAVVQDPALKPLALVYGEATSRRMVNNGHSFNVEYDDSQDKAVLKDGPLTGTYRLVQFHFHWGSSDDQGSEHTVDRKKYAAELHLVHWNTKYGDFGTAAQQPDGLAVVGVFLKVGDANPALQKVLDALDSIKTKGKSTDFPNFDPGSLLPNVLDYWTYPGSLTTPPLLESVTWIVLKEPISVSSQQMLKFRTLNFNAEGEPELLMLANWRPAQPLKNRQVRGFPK
Procedure: The inhibition of carbonic anhydrase was assessed as previously outlined, with certain modifications [[60–62]]. The method employed involves the hydrolysis of p-nitrophenyl acetate by carbonic anhydrase, resulting in the formation of yellow p-nitrophenol, which was subsequently analyzed through spectrophotometry. The reaction mixture included 20 µl of inhibitor, 120 µl of 50 mM Tris-Sulfate buffer (pH 7.6 with 0.1 mM ZnCl2), and 20 µl of bovine enzyme (50 U) per well. The components were mixed and preincubated at 25°C for 10 min. A 6 mM stock solution of the substrate p-nitrophenyl acetate was prepared with less than 5% acetonitrile in buffer and utilized fresh for each experiment, with 40 µl added per well to attain a concentration of […] per well. The total reaction volume was adjusted to 200 µl. […] Acetazolamide served as the reference standard. Each concentration underwent three separate evaluations. IC50 values were determined through nonlinear regression analysis utilizing GraphPad Prism 5.0 (GraphPad, San Diego, CA, U.S.A.).
Inhibition(%)=(B−S)/B×100
Here, the B and S are the absorbances for the blank and samples.

mushroom tyrosinase [2] = assay: Mushroom tyrosinase inhibition assay; settings: L-DOPA substrate, Mean ± SEM
Procedure: The inhibition of mushroom tyrosinase (Sigma Chemical, U.S.A.) was performed in accordance with previously documented methodologies [[57–59]]. Each well of a 96-well microplate received 20 µl of mushroom tyrosinase (30 U/ml), 20 µl of the inhibitor solution, and 140 µl of phosphate buffer (20 mM, pH 6.8). After a 10 min preincubation at room temperature, 20 µl of L-DOPA (3,4-dihydroxyphenylalanine, Sigma Chemical, U.S.A.) at a concentration of 0.85 mM was added, and the test plate was incubated for an additional 20 min at 25°C. The absorbance of dopachrome was later quantified at 475 nm using a microplate reader (SpectraMax ABS, U.S.A.). […] Every experiment was performed three times. IC50 values were calculated by nonlinear regression using GraphPad Prism 5.0 (GraphPad, San Diego, CA U.S.A.).
The % Inhibition of tyrosinase was calculated as following:
Tyrosinase % Inhibition= (Blank−Sample)/B×100 = ( Equation 1 ).

mushroom tyrosinase [3] = assay: Mushroom tyrosinase inhibition assay

Sequence of calf intestinal alkaline phosphatase (CIAP) (P19111 20-533): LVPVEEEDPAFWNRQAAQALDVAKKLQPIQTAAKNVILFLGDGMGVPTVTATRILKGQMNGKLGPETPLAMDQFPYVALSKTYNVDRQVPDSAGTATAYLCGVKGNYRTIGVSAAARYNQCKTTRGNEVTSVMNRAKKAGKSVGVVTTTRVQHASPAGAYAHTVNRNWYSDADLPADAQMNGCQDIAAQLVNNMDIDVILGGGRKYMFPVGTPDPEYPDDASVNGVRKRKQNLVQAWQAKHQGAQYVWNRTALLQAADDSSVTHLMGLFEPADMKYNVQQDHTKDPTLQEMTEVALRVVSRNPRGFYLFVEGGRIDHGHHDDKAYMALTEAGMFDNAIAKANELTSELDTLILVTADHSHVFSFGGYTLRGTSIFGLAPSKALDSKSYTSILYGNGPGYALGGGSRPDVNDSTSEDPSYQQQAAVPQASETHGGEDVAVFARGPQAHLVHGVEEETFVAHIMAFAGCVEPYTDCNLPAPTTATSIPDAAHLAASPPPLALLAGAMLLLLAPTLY

IC50 [1]	IC50 (carbonic anhydrase)	IC50 (mushroom tyrosinase [2])	Type of tyrosinase inhibition (kinetic studies) (mushroom tyrosinase [3])	SMILES
20.6 µM	10.9 ± 0.99 µM	7940 ± 630 nM		CCCC(=O)NC(=S)Nc1ccccc1-c1nc2ccccc2c2nc3ccccc3n12 [Compound 6a, N-((2-(Benzo [4, 5]imidazo[1,2 c]quinazolin-6-yl)phenyl)carbamothioyl)butyramide]
16.6 ± 0.98 µM	3.51 ± 0.63 µM	921 ± 70 nM		CCCCCCC(=O)NC(=S)Nc1ccccc1-c1nc2ccccc2c2nc3ccccc3n12 [Compound 6d, N-((2-(Benzo [4, 5]imidazo[1,2 c]quinazolin-6-yl)phenyl)carbamothioyl)heptanamide]
7.77 µM	1.08 ± 0.42 µM	1850 ± 886 nM		CCCCCCCC(=O)NC(=S)Nc1ccccc1-c1nc2ccccc2c2nc3ccccc3n12 [Compound 6e, N-((2-(Benzo [4, 5]imidazo[1,2 c]quinazolin-6-yl)phenyl)carbamothioyl)octanamide]
10.7 ± 0.96 µM	2.76 ± 0.56 µM	4880 ± 540 nM		CCCCC(=O)NC(=S)Nc1ccccc1-c1nc2ccccc2c2nc3ccccc3n12 [Compound 6b, N -((2-(Benzo[4,5]imidazo[1,2-c]quinazolin-6-yl)phenyl)carbamothioyl)pentanamide]
20.3 µM	7.42 ± 0.74 µM	2800 ± 850 nM		CCCCCC(=O)NC(=S)Nc1ccccc1-c1nc2ccccc2c2nc3ccccc3n12 [Compound 6c, N ((2-(Benzo [4, 5]imidazo[1,2 c]quinazolin-6-yl)phenyl)carbamothioyl)hexanamide]
7.02 µM	7.14 ± 0.95 µM	2050 ± 970 nM		CCCCCCCCC(=O)NC(=S)Nc1ccccc1-c1nc2ccccc2c2nc3ccccc3n12 [Compound 6f, N -((2-(Benzo[4,5]imidazo[1,2-c]quinazolin-6-yl)phenyl)carbamothioyl)nonanamide]
2.81 ± 0.42 µM	0.708 ± 0.02 µM	832 ± 30 nM	competitive inhibition	CCCCCCCCCC(=O)NC(=S)Nc1ccccc1-c1nc2ccccc2c2nc3ccccc3n12 [Compound 6g, N -((2-(Benzo[4,5]imidazo[1,2-c]quinazolin-6-yl)phenyl)carbamothioyl)decanamide]
7.2 ± 0.63 µM	2.33 ± 0.34 µM	1270 ± 170 nM		CC(C)(C)C(=O)NC(=S)Nc1ccccc1-c1nc2ccccc2c2nc3ccccc3n12 [Compound 6h, N-((2-(Benzo [4, 5]imidazo[1,2 c]quinazolin-6-yl)phenyl)carbamothioyl)pivalamide]

— article PMC12863032, “Design, synthesis, and anticancer activity of novel isocryptolepine ‘aza’ type acyl thiourea derivatives via combined experimental and computational approach” (Bioscience Reports, 2026)
